Laboratory results published in US7598067B2, “PDEs and uses thereof” (priority 2000, dated 2009).
Where “and” joins values, the source holds several entries; their conditions need not be identical. Equal values may be shown once. Read-outs that look alike come from different tables or passages of the source.

Columns and labels:
TbPDE2B = TbPDE2B (Trypanosoma brucei, UniProt Q9GQU6); experiment: Phosphodiesterase assay, recombinant TbPDE2B expressed in HEK 293 cells; assay type: biochemical; conditions: for inhibition of recombinant TbPDE2B, in words: 1 μM [3H] cAMP, cGMP up to 200 μM
Chain of TbPDE2B (Q9GQU6 entry or part of it): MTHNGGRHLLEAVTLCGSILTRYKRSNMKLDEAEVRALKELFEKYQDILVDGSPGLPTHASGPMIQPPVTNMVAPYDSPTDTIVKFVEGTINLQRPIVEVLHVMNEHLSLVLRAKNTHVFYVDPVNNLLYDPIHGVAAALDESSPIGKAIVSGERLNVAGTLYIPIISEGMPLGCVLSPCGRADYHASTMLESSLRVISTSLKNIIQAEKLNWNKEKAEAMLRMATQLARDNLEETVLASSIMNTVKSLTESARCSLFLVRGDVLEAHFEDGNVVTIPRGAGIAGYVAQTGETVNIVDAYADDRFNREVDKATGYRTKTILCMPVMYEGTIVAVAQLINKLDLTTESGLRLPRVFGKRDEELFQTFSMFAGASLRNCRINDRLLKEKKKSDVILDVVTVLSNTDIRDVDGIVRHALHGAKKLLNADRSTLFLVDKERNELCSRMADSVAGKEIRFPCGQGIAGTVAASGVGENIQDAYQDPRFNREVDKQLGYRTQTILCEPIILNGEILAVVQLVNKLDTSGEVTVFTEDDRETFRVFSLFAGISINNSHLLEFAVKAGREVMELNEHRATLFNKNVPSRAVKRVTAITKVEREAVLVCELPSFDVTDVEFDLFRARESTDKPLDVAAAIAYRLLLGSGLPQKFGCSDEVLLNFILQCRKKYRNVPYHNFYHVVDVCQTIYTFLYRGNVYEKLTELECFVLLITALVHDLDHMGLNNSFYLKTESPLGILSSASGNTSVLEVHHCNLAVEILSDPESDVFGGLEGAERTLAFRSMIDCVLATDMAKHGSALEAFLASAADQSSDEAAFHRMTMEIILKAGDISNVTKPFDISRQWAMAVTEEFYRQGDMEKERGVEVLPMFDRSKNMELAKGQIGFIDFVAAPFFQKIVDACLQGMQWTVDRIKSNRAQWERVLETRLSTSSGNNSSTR
Protocol: Expression of T. brucei PDE. The ORF sequence for T. brucei PDE was subcloned into the pcDNA 3.1-TOPO vector (Invitrogen) according to the manual (Eukaryotic TOPO TA Cloning, version C) and plasmid DNA purified as described above. Human embryonic kidney 293 (HEK 293) cells were transfected with 12 μg of DNA in 60 μl of GenePORTER Transfection Reagent (Gene Therapy Systems, San Diego, Calif.) in 100-mm dishes and kept at 37° C. in 5% CO2 for 24 h. After this period fresh medium was added, and incubated under the same conditions for an additional 24 h. The same amount of pcDNA vector containing the sequence for the Green Fluorescent Protein (GFP) was transfected under identical conditions as a positive control for expression and as a negative control for PDE activity. Two plates were harvested at a time and homogenized with 1 ml of homogenization buffer containing 40 mM Tris-HCl, pH 7.5; 15 mM benzamidine; 15 mM 2-mercaptoethanol; 1 μg/ml pepstatin A; 1 μg/ml leupeptin and 5 mM EDTA. The cell suspension was immediately subjected to sonication (3×5 s) on ice. One volume of glycerol and 1 mg/ml of bovine serum albumin were added immediately to the homogenate.
Phosphodiesterase assay. […]

[1] = system: endogenous PDE activity from the HEK 293 cells; experiment: Endogenous PDE activity from HEK 293 cells; assay type: biochemical, human; conditions: lowest concentration used (10 μM)
Source text: Phosphodiesterase assay. […] […]

PDE 4 = conditions: read-out: PDE Selectivity (IC50); cited from earlier work
TbPDE2A [2] = molecular target: T1, TbPDE2A (Trypanosoma brucei, UniProt Q9GTN9); experiment: Phosphodiesterase assay, recombinant TbPDE2A in yeast lysates; assay type: biochemical; conditions: for IC50 / IC50 for TbPDE2A (μM): full-size TbPDE2A, yeast lysates; for IC50 / effect on TbPDE2A activity in initial screening / IC50 for TbPDE2A (μM): 1 μM cAMP; for effect on TbPDE2A activity in initial screening: 100 μM inhibitor, FIG. 26
T1 sequence (Q9GTN9 entry or part of it): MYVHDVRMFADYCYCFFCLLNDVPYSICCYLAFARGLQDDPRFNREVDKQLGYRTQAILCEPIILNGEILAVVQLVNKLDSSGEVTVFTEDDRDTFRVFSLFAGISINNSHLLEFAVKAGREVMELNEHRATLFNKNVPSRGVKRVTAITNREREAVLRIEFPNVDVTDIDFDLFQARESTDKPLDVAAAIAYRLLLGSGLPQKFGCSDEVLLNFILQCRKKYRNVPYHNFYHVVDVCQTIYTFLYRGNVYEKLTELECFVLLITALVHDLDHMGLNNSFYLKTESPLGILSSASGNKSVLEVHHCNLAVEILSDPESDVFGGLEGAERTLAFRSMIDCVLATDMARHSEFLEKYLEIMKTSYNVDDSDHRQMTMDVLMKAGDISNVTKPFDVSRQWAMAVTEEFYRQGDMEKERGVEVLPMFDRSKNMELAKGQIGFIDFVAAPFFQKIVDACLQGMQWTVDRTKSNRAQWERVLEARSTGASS
Protocol: Yeast cell lysis. Yeast cells grown to mid- to end-log phase in SC-leu medium were collected, resuspended quickly in an original volume of prewarmed YPD medium and incubated for an additional 3 h at 30° C. in order to maximize protein expression. Cells were then harvested, washed once in water and once in HBBB buffer (Hank's balanced salt solution, containing 50 mM HEPES, pH 7.5). The washed cell pellet was suspended in an equal volume of HBB containing a protease inhibitor cocktail (Complete™, Roche Molecular Biochemicals). […] The cell lysate was clarified by centrifugation for 15 min at 15,000×g.
Phosphodiesterase Assay. […] […] Incubation was at 30° C. for 20 min. […] The precipitates were filtered through GF-C glass fiber fitters and filters were washed 3 times with ice-cold 1 mM NaOH/100 mM NaCl and were then dried and counted in liquid scintillation fluid (4 g/I omnifluor in toluene). All assays were carried out in triplicates and with three independent enzyme preparations. Controls for the efficiency of precipitation of cAMP and of AMP were always included. When assaying yeast cell extracts, control lysates from the PDE deletion strains transfected with empty vector was used as a background control. […] Inhibitors were dissolved in DMSO or ethanol, and the final concentration of the solvent never exceeded 1% in the assays reaction. Incubation times and enzyme concentrations were always adjusted so that less than 30% of the input substrate was hydrolyzed (2-5 μg total protein/100 μl assay). IC50 values were calculated by curve fitting on a four parameter dose-response model with variable slope, using the Prism software package of Graph Pad Inc., San Diego, Calif.

[3] = system: total PDE activity of trypanosomal cell extracts; experiment: Total PDE activity in trypanosomal cell extracts; assay type: biochemical, Trypanosoma brucei
Source text: Chemical validation of the TbPDE2 family as a potential drug target. One of the novel PDEs of the invention, TbPDE2A, was expressed as a recombinant protein and was characterized in detail (see above). […].

PDE7A = experiment: RT-PCR of PDE7A upregulation in CD3/CD28-stimulated CD4+ T cells; assay type: cell-based, human; conditions: 1 hour after stimulation; FIG. 2C
PDE8A = experiment: RT-PCR of PDE8A upregulation in CD3/CD28-stimulated CD4+ T cells; assay type: cell-based, human; conditions: after CD3 and CD28 stimulation; FIG. 2C, 2D
Protocol: Peripheral blood mononuclear cells were isolated from one human buffy coat (50 mL) by centrifugation through a layer of Ficoll-Paque Plus (2000 rpm, 30 min). Cells from the interface were removed and further purified by negative selection. CD4^+ T cells were usually isolated using a mixture of monoclonal antibodies (CD8, CD16, CD20, CD25 and HLADr) and goat anti-mouse IgG conjugated to magnetic beads according to the manufacturers protocol (Dynal, Lake Success, N.Y.). In some cases the CD4^+ T cell isolation kit was used in combination with the CD69 microbead kit (to remove activated cells). The labeled cells were removed by passage through a CS column (Miltenyi Biotec, Auburn, Calif.) placed in a magnetic field. The CD4^+ T cells passing through the column (at least 98% pure as determined by FACS analysis) were resuspended in RPMI/10% FBS/pen/strep/glutamine medium. The cells were stimulated as follows. Plates (Corning, Acton, Mass.) were precoated with goat anti-mouse IgG (10 μg/mL) for 2 hours at 37° C. and then washed with PBS. Cells were added to the plate together with CD3 (0.01 μg/mL) and CD28 (0.1 ug/mL) monoclonal antibodies and were harvested at various time points. The presence of PDE8A protein and RNA in activated CD4^+ T cells was detected by Western blotting and RT-PCR (see example 3). […]

[4] = system: PDE8A and PDE7A from hut78 cells; experiment: PDE activity of monoQ HPLC fractions of hut78 cells, low Km peak; assay type: biochemical, human; conditions: 0.01 μM cAMP; 10 μM rolipram or 100 μM IBMX
Protocol: Since pure CD4^+ T cells can only be obtained in limited quantities, a human CD4^+ T cell line, hut78, (ATCC, Manassas, Va.), was used to study the activity of PDE8A. Hut78 cells (2×10^8) were resuspended in 20 mM Tris pH 7.5 buffer containing protease inhibitors (Boehringer Mannheim, Indianapolis, Ind.) and sonicated. The supernatant was removed after centrifugation at 15000×g for 10 minutes and applied to a Mono Q column attached to a Rainin Dynamax HPLC system (Ameryville, Calif.). A NaCl gradient (0-0.8M) was passed through the column and 250 uL fractions were collected. The fractions were assayed for activity using either 1 μM or 0.01 μM cAMP as substrate and the indicated concentration of inhibitor (FIG. 5). Western blot analysis was also performed (10 μL/well) using PDE7A or 8A antibodies.

TbPDE2A [5] = molecular target: T1, TbPDE2A; conditions: Table 2, from reference; cited from earlier work
PDEs (Non-selective) = conditions: read-out: PDE Selectivity (IC50); cited from earlier work
PDE 6 = conditions: read-out: PDE Selectivity (IC50); cited from earlier work

Row | Molecule | inhibition of recombinant TbPDE2B, in words (TbPDE2B) | IC50 (TbPDE2B) [µM] | IC50 (TbPDE2A [2]) | effect on TbPDE2A activity in initial screening (TbPDE2A [2]) | other results
1 | Ro 20-1724 | No inhibition |  |  |  | IC50 (TbPDE2B; Substrate concentration 1 μM [3H]-cAMP, read-out: TbPDE2B IC50 (μM) (n = 3)): > 300 µM; endogenous PDE activity from the HEK 293 cells [1]: completely abolished; IC50 (PDE 4): 2000 nM
2 | CCOC(=O)c1cnc2c(cnn2CC)c1NN=C(C)C [Etazolate, etazolate] |  | 127 | 30.3 µM |  | 
3 | Cc1[nH]c(=O)c(C#N)cc1-c1ccncc1 [milrinone] |  |  |  | only very little effect | 
4 | CCOc1ccc(Cc2nccc3cc(OCC)c(OCC)cc23)cc1OCC [Ethaverine] |  |  | 14 µM and 14.2 µM | significantly more effective as an inhibitor of TbPDE2A than its parent compound papaverine | IC50 for TbPDE2A (μM) (TbPDE2A [2]): low micromolar range; total PDE activity [3]: marked, if not complete, reduction
5 | CC(C)(C)n1nc(-c2ccc(Cl)cc2)c2c(N)ncnc21 [PP2] |  |  |  |  | PDE7A upregulation (PDE7A): reduction of PDE7A upregulation; PDE8A upregulation (PDE8A): greatly reduced
6 | COc1cc2c(cc1OC)-c1c/c(=N\c3c(C)cc(C)cc3C)n(C)c(=O)n1CC2 [Trequinsin] |  |  | 5.4 µM |  | IC50 for TbPDE2A (μM) (TbPDE2A [2]): low micromolar range; total PDE activity [3]: marked, if not complete, reduction
7 | CN(C(=O)CCCOc1ccc2[nH]c(=O)ccc2c1)C1CCCCC1 [Cilostamide, cilostamide] |  |  | > 100 µM | only very little effect | 
8 | COc1ccc(C2CNC(=O)C2)cc1OC1CCCC1 (stereo not drawn) [Rolipram, rolipram] | No inhibition | > 300 | > 100 µM | no appreciable activity | sensitivity of the PDE activity peak [4]: resistant; endogenous PDE activity from the HEK 293 cells [1]: completely abolished; IC50 (TbPDE2A [5]): > 100 µM; IC50 (PDE 4): […]
9 | CCOC(=O)C1=C[C@]2(CC)CCCN3CCc4c(n1c1ccccc41)[C@@H]32 [Vinpocetine, vinpocetine] |  |  | > 100 µM | only very little effect | 
10 | COc1ccc(Cc2nccc3cc(OC)c(OC)cc23)cc1OC [Papaverine, papaverine] | extremely low sensitivity | 304 ± 19 |  |  | effectiveness on TbPDE2A, in words (TbPDE2A [2]): only marginal activity; IC50 (PDEs (Non-selective)): 5 to 25 µM
11 | CCCOc1ccccc1-c1nc2nn[nH]c2c(=O)[nH]1 [Zaprinast, zaprinast] | No IC50 could be obtained | > 50 | 42.4 µM | only very little effect | IC50 (TbPDE2A [5]): 42.5 µM; IC50 (PDE 6): 150 nM
12 | CC(=O)CCCCn1c(=O)c2c(ncn2C)n(C)c1=O [Pentoxifylline, pentoxifylline] | extremely low sensitivity | > 800 |  |  | IC50 (PDEs (Non-selective)): 45 to 150 µM
13 | COCc1nc2c([nH]1)c(=O)n(C)c(=O)n2CC(C)C [8-methoxymethyl-IBMX] |  |  |  | only very little effect | 
14 | CCCCCCC(C(C)O)n1cnc2c(N)ncnc21 (stereo not drawn) [EHNA, erythro-9-[3-(2-hydroxynonyl)]-adenine] | No IC50 could be obtained | > 180 |  |  | 
15 | CCCc1nn(C)c2c(=O)[nH]c(-c3cc(S(=O)(=O)N4CCN(C)CC4)ccc3OCC)nc12 [Sildenafil, sildenafil] | No IC50 could be obtained | > 100 | 9.4 µM |  | IC50 for TbPDE2A (μM) (TbPDE2A [2]): low micromolar range; total PDE activity [3]: marked, if not complete, reduction
16 | Cn1c(=O)c2[nH]cnc2n(C)c1=O [Theophylline, theophylline] |  |  | > 100 µM |  | effectiveness on TbPDE2A, in words (TbPDE2A [2]): not effective
